Patent US20090197279A1, “MICROTUBULE SYNTHESIS AS A BIOMARKER” (KINEMED, INC., priority 2005, published 2009)

Assays:
primary rat neurons = assay: Microtubule dynamics in glutamate-stimulated cultures of primary rat neurons; assay type: cell-based; conditions: parallel experiments, data not shown
Method: Rat brain hippocampus neuronal cells were obtained from Cambrex Bio Science (Walkersville, Md.). The neurons were grown in Neurobasal medium supplemented with 2 mM Glutamine, 100 U/ml penicillin/streptomycin- and 2% B27 in a humidified atmosphere of 10% CO2 at 37° C. for 14 days on a poly-D-lysine and laminin coated 10 cm^2 tissue culture dish.
During experimental manipulation of neural connectivity, the dynamic responses of dendritic microtubules to various stimuli are likely to differ from those of axonal shafts or of the cell body. In order to detect such differential responses by use of the invention disclosed herein, we cultured primary neurons from rat brain hippocampi and labeled newly synthesized tubulin by adding 5% ^2H2O in culture media for 24 hours. After separation of tubulin dimers and polymers in cytosolic extracts, we captured axonal growth cone and dendritic microtubules by sequential binding to immunoaffinity columns reactive with tau and MAP2, respectively, leaving only somatic and axonal shaft microtubules in the unbound fraction (FIG. 5A). Tubulin was purified further from each fraction, and label incorporation into Ala was measured by GC/MS (FIG. 5B). […] Free Ala in culture media was >80% equilibrated with ^2H2O (not shown). […]

[1] = system: total hippocampal proteins; assay: Fractional synthesis of total hippocampal proteins; assay type: in vivo, mouse; conditions: glutamate ICVC vs mock-treated animals
Method: FIG. 7 depicts the effects of ICV glutamate on the relative amounts of MT subpopulations and on total protein synthesis in murine hippocampus. (A, B) Tubulin abundances are measured by Western blot analysis for α-tubulin at 8 hour (A) and 24 hours (B). Subpopulations were total extract (total), free tubulin dimers, tau-associated MTs, tau-nonassociated (MAP2/STOP) MTs and cold stable (CS) MTs. Mock and glutamate infused ICVC mice are shown (cf. FIGS. 6A and B). […] (C) Fractional synthesis of total hippocampal proteins. Glutamate increased protein synthesis versus mock-treated animals (*p<0.01); this effect was blocked by coadministration with 0.66 pmol of Rp-cAMP (**p<0.02).
This hypothesis had not previously been tested in the living brain, however. To test this hypothesis, we used the methods of the invention disclosed herein. Mice were infused with 6 μl water containing 0.48 nmol glutamate (80 μM in the infusate), or glutamate plus 0.66 pmol Rp-cAMP (110 nM in the infusate). Label incorporation into hippocampal tubulin dimers and into microtubule polymers was then quantified after administration of ^2H2O for 8 hours or 24 hours (FIGS. 7A and 7B). […] These findings further strengthen the previously reported correlation between hippocampus glutamate NMDA receptor-dependent learning (long-term potentiation) and protein synthesis (Kandel, E. R. The molecular biology of memory storage: a dialogue between genes and synapses. Science 294, 1030-1038 (2001)). By the same criterion, the glutamate-induced program of changes in hippocampal microtubule dynamics shown in FIGS. 6 and 7 also alters hippocampal total protein synthesis in vivo (data not show), further supporting the capacity of the invention disclosed herein to generate a biochemical record of basic neuroanatomic connectivity in the brain and thereby to reveal the dynamics of synaptogenesis in vivo.

N[C@@H](CCC(=O)[O-])C(=O)[O-].[K+].[K+] [glutamate, potassium L-glutamate] was tested, and the “microtubule label incorporation pattern compared with in vivo” value (primary rat neurons) was “identical results”, the “fractional synthesis of total hippocampal proteins” value [1] was “alters” and the “fractional synthesis of total hippocampal proteins” value ([1]; listed as Glutamate) was “increased”.
